What is called IC50 is the midpoint of a concentration-inhibition curve.

The structures appear in SMILES notation.

For the assay, the target named is T1, human CCR2B (Homo sapiens, UniProt P41597).
T1 construct: host or cells: CHO-K1 (CHOK1-CCR2B-A5)
T1 sequence (P41597 1-360 isoform P41597-2): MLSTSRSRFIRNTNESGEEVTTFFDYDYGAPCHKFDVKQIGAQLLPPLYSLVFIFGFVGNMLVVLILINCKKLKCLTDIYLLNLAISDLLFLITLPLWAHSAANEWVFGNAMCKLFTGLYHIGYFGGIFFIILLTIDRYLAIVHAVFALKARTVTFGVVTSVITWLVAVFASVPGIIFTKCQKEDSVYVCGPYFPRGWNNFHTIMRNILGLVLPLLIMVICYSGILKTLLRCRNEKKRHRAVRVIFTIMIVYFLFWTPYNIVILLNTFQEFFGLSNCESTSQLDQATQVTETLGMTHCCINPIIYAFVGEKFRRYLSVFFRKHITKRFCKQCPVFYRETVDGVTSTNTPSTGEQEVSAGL
Description: Calcium mobilization assay (FLIPR, MCP-1 stimulated CHOK1-CCR2B-A5 cells). Format: cell-based. The conditions noted are these: antagonist activity vs 20 nM MCP-1, CHOK1-CCR2B-A5 cells. As for the experimental part: Calcium Mobilization Assay
CHOK1-CCR2B-A5 cells (from Euroscreen) stably overexpressing the human chemokine receptor 2 isoform B were cultured in Nutrient Hams F12 medium supplemented with 5% FBS, 100 U/ml penicillin, 100 μg/ml streptomycin, 400 μg/ml G418 and 5 μg/ml puromycin.
For the assay cells were grown overnight in 384-well black clear flat bottom polystyrene plates (Costar) at 37° C. at 5% CO2. After washing with DMEM, 20 mM Hepes, 2.5 mM probenecid, 0.1% BSA (DMEM assay buffer) cells were loaded with 4 μM Fluo-4 in the same DMEM assay buffer for 2 hours at 30° C. Excess dye was removed and cells were washed with DMEM assay buffer. 384-well compound plates were prepared with DMEM assay buffer/0.5% DMSO with or without various concentrations of test compounds. Usually compounds were tested for agonist and antagonist activity.
Test compounds were added to the assay plate and agonist activity was monitored as fluorescence for 80 seconds with a FLIPR (488 nm excitation; 510-570 nm emission; Molecular Devices). After 20-30 min. of incubation at 30° C., 20 nM MCP-1 (R&D; Roche) was added and fluorescence was monitored again for 80 seconds. Increases in intracellular calcium are reported as maximum fluorescence after agonist exposure minus basal fluorescence before exposure. Antagonist activity is indicated as inhibitor concentration required for 50% inhibition of specific calcium increases.

With `Cc1cc(-c2cccc(C(F)(F)F)c2)cc(C)c1C(=O)N1CCC(N2CCC[C@H]2CO)CC1` [Example 9, (3,5-Dimethyl-3′-trifluoromethyl-biphenyl-4-yl)-[4-((S)-2-hydroxymethyl-pyrrolidin-1-yl)-piperidin-1-yl]-methanone], the half-inhibitory concentration (IC50) worked out at 9 nM. Under `Cc1cc(-c2cccc(C(F)(F)F)c2)nc(O)c1C(=O)N1CCC(N2CCCC2)CC1` [Example 51, [2-Hydroxy-4-methyl-6-(3-trifluoromethyl-phenyl)-pyridin-3-yl]-(4-pyrrolidin-1-yl-piperidin-1-yl)-methanone; 4-Methyl-3-(4-pyrrolidin-1-yl-piperidine-1-carbonyl)-6-(3-trifluoromethyl-phenyl)-1H-pyridin-2-one (tautomers)] stands 17 nM.

For the compound `Cc1cc(-c2cncc(C(F)(F)F)c2)nc(C)c1C(=O)N1CCC(N2CCCC2)CC1` [Example 42, (4,6-Dimethyl-5′-trifluoromethyl-[2,3′]bipyridinyl-5-yl)-(4-pyrrolidin-1-yl-piperidin-1-yl)-methanone], the IC50 worked out at 240 nM. For `Cc1cc(-c2cccc(OC(F)(F)F)c2)ccc1C(=O)N1CCC(N2CCCC2)CC1` [Example 6, (3-Methyl-3′-trifluoromethoxy-biphenyl-4-yl)-(4-pyrrolidin-1-yl-piperidin-1-yl)-methanone], the IC50 was 430 nM. The figure for `Cc1cc(-c2cccc(C(F)(F)F)c2)nc(C)c1C(=O)N1CCC(N2CCC[C@H]2CO)CC1` [Example 30, [2,4-Dimethyl-6-(3-trifluoromethyl-phenyl)-pyridin-3-yl]-[4-((S)-2-hydroxymethyl-pyrrolidin-1-yl)-piperidin-1-yl]-methanone] is 67 nM; for `COc1cc(-c2cccc(C(F)(F)F)c2)cc(C)c1C(=O)N1CCC(N2CCCC2)CC1` [Example 44, (3-Methoxy-5-methyl-3′-trifluoromethyl-biphenyl-4-yl)-(4-pyrrolidin-1-yl-piperidin-1-yl)-methanone] it is 76 nM. For `Cc1cc(-c2cccc(C(F)(F)F)c2)ccc1C(=O)N1CCC(N2CCCC2)CC1` [Example 7, (3-Methyl-3′-trifluoromethyl-biphenyl-4-yl)-(4-pyrrolidin-1-yl-piperidin-1-yl)-methanone], the IC50 stood at 150 nM.

`Cc1cc(-c2cncc(C(F)(F)F)c2)cc(C)c1C(=O)N1CCC(N2CCC[C@H]2CO)CC1` [Example 14, [2,6-Dimethyl-4-(5-trifluoromethyl-pyridin-3-yl)-phenyl]-[4-((S)-2-hydroxymethyl-pyrrolidin-1-yl)-piperidin-1-yl]-methanone]: the IC50 was 48 nM.

As to `Cc1cc(-c2cccc(C(F)(F)F)c2)cc(C)c1C(=O)N1CCC(N2CCCC2)CC1` [Example 2, (3,5-Dimethyl-3′-trifluoromethyl-biphenyl-4-yl)-(4-pyrrolidin-1-yl-piperidin-1-yl)-methanone], the half-maximal inhibitory concentration (IC50) was 21 nM. `Cc1nc(-c2cccc(C(F)(F)F)c2)nc(C)c1C(=O)N1CCC(N2CCC[C@H]2CO)CC1` [Example 16, [4,6-Dimethyl-2-(3-trifluoromethyl-phenyl)-pyrimidin-5-yl]-[4-((S)-2-hydroxymethyl-pyrrolidin-1-yl)-piperidin-1-yl]-methanone]: the concentration for half-maximal inhibition (IC50) was 310 nM.

`Cc1cc(-c2cccc(C(F)(F)F)c2)cc(C)c1C(=O)N1CCC(N2CCC(O)CC2)CC1` [Example 22, (3,5-Dimethyl-3′-trifluoromethyl-biphenyl-4-yl)-(4-hydroxy-[1,4′]bipiperidinyl-1′-yl)-methanone]: the IC50 came to 55 nM. As to `Cc1cc(-c2cccc(OC(F)(F)F)c2)cc(C)c1C(=O)N1CCC(N2CCC[C@H]2CO)CC1` [Example 10, (3,5-Dimethyl-3′-trifluoromethoxy-biphenyl-4-yl)-[4-((S)-2-hydroxymethyl-pyrrolidin-1-yl)-piperidin-1-yl]-methanone], the IC50 is 39 nM. The figure for `Cc1cc(-c2cncc(C(F)(F)F)c2)cc(C)c1C(=O)N1CCC(N2CCC(O)CC2)CC1` [Example 24, [2,6-Dimethyl-4-(5-trifluoromethyl-pyridin-3-yl)-phenyl]-(4-hydroxy-[1,4′]bipiperidinyl-1′-yl)-methanone] is 270 nM. The figure for `Cc1cc(-c2cccc(C(F)(F)F)c2)cc(-c2cncnc2)c1C(=O)N1CCC(N2CCCC2)CC1` [Example 47, (5-Methyl-3-pyrimidin-5-yl-3′-trifluoromethyl-biphenyl-4-yl)-(4-pyrrolidin-1-yl-piperidin-1-yl)-methanone] is 12 nM; for `Cc1cc(-c2cccc(OC(F)(F)F)c2)cc(C)c1C(=O)N1CCC(N2CCCC2)CC1` [Example 1, (3,5-Dimethyl-3′-trifluoromethoxy-biphenyl-4-yl)-(4-pyrrolidin-1-yl-piperidin-1-yl)-methanone] it is 60 nM; for `COc1nc(-c2cccc(C(F)(F)F)c2)cc(C)c1C(=O)N1CCC(N2CCCC2)CC1` [Example 50, [2-Methoxy-4-methyl-6-(3-trifluoromethyl-phenyl)-pyridin-3-yl]-(4-pyrrolidin-1-yl-piperidin-1-yl)-methanone] it is 82 nM.

For `O=C(c1c(F)cc(-c2cccc(C(F)(F)F)c2)cc1F)N1CCC(N2CCCC2)CC1` [Example 39, (3,5-Difluoro-3′-trifluoromethyl-biphenyl-4-yl)-(4-pyrrolidin-1-yl-piperidin-1-yl)-methanone], the IC50 stood at 89 nM. Under `Cc1nc(-c2cccc(C(F)(F)F)c2)nc(C2CC2)c1C(=O)N1CCC(N2CCCC2)CC1` [Example 18, [4-Cyclopropyl-6-methyl-2-(3-trifluoromethyl-phenyl)-pyrimidin-5-yl]-(4-pyrrolidin-1-yl-piperidin-1-yl)-methanone] stands 490 nM. Under `Cc1cc(-c2cccc(OC(F)(F)F)c2)nc(C)c1C(=O)N1CCC(N2CCC[C@H]2CO)CC1` [Example 29, [2,4-Dimethyl-6-(3-trifluoromethoxy-phenyl)-pyridin-3-yl]-[4-((S)-2-hydroxymethyl-pyrrolidin-1-yl)-piperidin-1-yl]-methanone] stands 150 nM. As for `Cc1cc(-c2cccc(OC(F)(F)F)c2)nc(C)c1C(=O)N1CCC(N2CCCC2)CC1` [Example 28, [2,4-Dimethyl-6-(3-trifluoromethoxy-phenyl)-pyridin-3-yl]-(4-pyrrolidin-1-yl-piperidin-1-yl)-methanone], the IC50 was 79 nM. As to `Cc1cc(-c2cccc(C(F)(F)F)c2)cc(-c2cccnc2)c1C(=O)N1CCC(N2CCCC2)CC1` [Example 48, (5-Methyl-3-pyridin-3-yl-3′ trifluoromethyl-biphenyl-4-yl)-(4-pyrrolidin-1-yl-piperidin-1-yl)-methanone], the IC50 is 16 nM. The figure for `Cc1nc(-c2cccc(C(F)(F)F)c2)nc(C2CC2)c1C(=O)N1CCC(N2CCC[C@H]2CO)CC1` [Example 19, [4-Cyclopropyl-6-methyl-2-(3-trifluoromethyl-phenyl)-pyrimidin-5-yl]-[4-((S)-2-hydroxymethyl-pyrrolidin-1-yl)-piperidin-1-yl]-methanone] is 990 nM. Under `Cc1nc(-c2cccc(C(F)(F)F)c2)nc(C)c1C(=O)N1CCC(N2CCCC2)CC1` [Example 13, [4,6-Dimethyl-2-(3-trifluoromethyl-phenyl)-pyrimidin-5-yl]-(4-pyrrolidin-1-yl-piperidin-1-yl)-methanone] stands 190 nM; under `Cc1cc(-c2cccc(C(F)(F)F)c2)cc(O)c1C(=O)N1CCC(N2CCCC2)CC1` [Example 45, (3-Hydroxy-5-methyl-3′-trifluoromethyl-biphenyl-4-yl)-(4-pyrrolidin-1-yl-piperidin-1-yl)-methanone], 48 nM; under `Cc1cc(-c2cccc(C(F)(F)F)c2)nc(OCCO)c1C(=O)N1CCC(N2CCCC2)CC1` [Example 53, [2-(2-Hydroxy-ethoxy)-4-methyl-6-(3-trifluoromethyl-phenyl)-pyridin-3-yl]-(4-pyrrolidin-1-yl-piperidin-1-yl)-methanone], 11 nM.

With `O=C(c1c(F)cc(-c2cccc(OC(F)(F)F)c2)cc1F)N1CCC(N2CCCC2)CC1` [Example 40, (3,5-Difluoro-3′-trifluoromethoxy-biphenyl-4-yl)-(4-pyrrolidin-1-yl-piperidin-1-yl)-methanone], the IC50 came out at 220 nM. Under `Cc1cc(-c2cccc(C(F)(F)F)c2)nc(C)c1C(=O)N1CCC(N2CCCC2)CC1` [Example 27, [2,4-Dimethyl-6-(3-trifluoromethyl-phenyl)-pyridin-3-yl]-(4-pyrrolidin-1-yl-piperidin-1-yl)-methanone] stands 21 nM. Consider `O=C(c1ccc(-c2cccc(C(F)(F)F)c2)cc1Cl)N1CCC(N2CCCC2)CC1` [Example 46, (3-Chloro-3′-trifluoromethyl-biphenyl-4-yl)-(4-pyrrolidin-1-yl-piperidin-1-yl)-methanone], for which the IC50 was 122 nM.
